# Measured values published in PubChem BioAssay AID200 (DTP/NCI, 2004).
# “And” between values parts separate entries of the source, which are not always exact repeats. Identical values can stand only once. Toxic doses and inconclusive results are not listed.
# System: B6C3F1 mice, B16 melanoma ip, median survival T/C
# Experiment: NCI In Vivo Anticancer Drug Screen. Data for tumor model B16 Melanoma (intraperitoneal) in B6C3F1 mice
# Details: endpoint: median survival time, higher = longer survival
# Method in brief: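 Antitumor effect was judged in mice with transplanted tumors by dividing the treated group's survival measure by that of vehicle controls.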
# [1] = dose: 0.25 mg/kg/injection, schedule: Q01DX009 (ip), vehicle: saline
structure (smiles),measurement,setting,value
N[C@@H](Cc1ccc(N(CCCl)CCCl)cc1)C(=O)O,T/C,[1],111 % of control and 124 % of control
same,T/C,"dose: 0.25 mg/kg/injection, schedule: Q01DX009 (ip), vehicle: water",124 % of control
same,T/C,"dose: 1.0 mg/kg/injection, schedule: Q01DX009 (ip), vehicle: water",183 % of control
same,T/C,"dose: 2.0 mg/kg/injection, schedule: Q01DX009 (ip), vehicle: saline with Tween-80",176 % of control
same,T/C,"dose: 2.0 mg/kg/injection, schedule: Q01DX009 (ip), vehicle: water",194 % of control
same,T/C,"dose: 2.0 mg/kg/injection, schedule: Q04DX003 (ip), vehicle: saline",164 % of control
same,T/C,"dose: 2.5 mg/kg/injection, schedule: Q04DX003 (ip), vehicle: saline",182 % of control
same,T/C,"dose: 4.0 mg/kg/injection, schedule: Q01DX009 (ip), vehicle: saline with Tween-80",387 % of control
same,T/C,"dose: 4.0 mg/kg/injection, schedule: Q04DX003 (ip), vehicle: saline",204 % of control
same,T/C,"dose: 5.0 mg/kg/injection, schedule: Q04DX003 (ip), vehicle: saline",217 % of control
same,T/C,"dose: 7.31 mg/kg/injection, schedule: Q01DX001 (ip), vehicle: other",172 % of control
same,T/C,"dose: 7.5 mg/kg/injection, schedule: Q04DX003 (ip), vehicle: saline",230 % of control and 240 % of control
same,T/C,"dose: 9.75 mg/kg/injection, schedule: Q01DX001 (ip), vehicle: other",157 % of control
same,T/C,"dose: 10.0 mg/kg/injection, schedule: Q04DX003 (ip), vehicle: saline",79 % of control
same,T/C,"dose: 13.0 mg/kg/injection, schedule: Q01DX001 (ip), vehicle: other",173 % of control
CNC(=O)Oc1ccc(S(=O)(=O)c2ccc(OC(=O)NC)cc2)cc1,T/C,"dose: 6.25 mg/kg/injection, schedule: Q01DX009 (ip), vehicle: saline with Tween-80",109 % of control
same,T/C,"dose: 12.5 mg/kg/injection, schedule: Q01DX009 (ip), vehicle: saline with Tween-80",95 % of control
same,T/C,"dose: 25.0 mg/kg/injection, schedule: Q01DX009 (ip), vehicle: saline with Tween-80",88 % of control and 98 % of control
same,T/C,"dose: 50.0 mg/kg/injection, schedule: Q01DX009 (ip), vehicle: saline with Tween-80",90 % of control and 96 % of control
same,T/C,"dose: 100.0 mg/kg/injection, schedule: Q01DX009 (ip), vehicle: saline with Tween-80",86 % of control
COc1cc2c(c(OC)c1OC)-c1ccc(OC)c(=O)cc1[C@@H](NC(C)=O)CC2,T/C,"dose: 0.02 mg/kg/injection, schedule: Q01DX009 (ip), vehicle: saline",108 % of control
same,T/C,"dose: 0.04 mg/kg/injection, schedule: Q01DX009 (ip), vehicle: saline",123 % of control
same,T/C,"dose: 0.13 mg/kg/injection, schedule: Q01DX009 (ip), vehicle: Klucel (hydroxypropylcellulose) (HPC)",158 % of control
same,T/C,"dose: 0.19 mg/kg/injection, schedule: Q01DX009 (ip), vehicle: saline",156 % of control
same,T/C,"dose: 0.25 mg/kg/injection, schedule: Q01DX009 (ip), vehicle: Klucel (hydroxypropylcellulose) (HPC)",155 % of control
same,T/C,[1],164 % of control
same,T/C,"dose: 0.37 mg/kg/injection, schedule: Q01DX009 (ip), vehicle: saline",167 % of control
same,T/C,"dose: 0.38 mg/kg/injection, schedule: Q01DX009 (ip), vehicle: saline",168 % of control
same,T/C,"dose: 0.5 mg/kg/injection, schedule: Q01DX009 (ip), vehicle: Klucel (hydroxypropylcellulose) (HPC)",173 % of control
same,T/C,"dose: 0.5 mg/kg/injection, schedule: Q01DX009 (ip), vehicle: saline",154 % of control
same,T/C,"dose: 0.5 mg/kg/injection, schedule: Q01DX009 (ip), vehicle: water",157 % of control
same,T/C,"dose: 1.0 mg/kg/injection, schedule: Q01DX009 (ip), vehicle: saline",154 % of control
same,T/C,"dose: 125.0 micrograms/kg/injection, schedule: Q01DX009 (ip), vehicle: water",161 % of control
same,T/C,"dose: 250.0 micrograms/kg/injection, schedule: Q01DX009 (ip), vehicle: water",154 % of control
same,T/C,"dose: 500.0 micrograms/kg/injection, schedule: Q01DX009 (ip), vehicle: water",155 % of control
